Key:
[1] = tested on: activated CD4+ T-cells; experiment: Extracellular acidification rate (ECAR), Seahorse analyzer, CD4+ T-cells; type: cell-based, mouse; details: for effect on glycolysis (ECAR trace) of metabolic drugs: 2-DG 1 mM, Rapamycin 200 nM, Metformin 2 mM, Etomoxir 100 μM
Procedure: (§1) Measurement of lactate, glycolysis, glucose uptake/flux and cell death: Lactate concentration was measured in the synovial fluid or peritoneal lavage using the Lactate assay Kit (Biovision), according to the manufacturer's instructions. Glycolytic metabolism was measured with a Seahorse XF24 Extracellular Flux Analyzer. Briefly, T-cells were grown in high glucose RPMI-1640 supplemented with 10% FCS. […] T-cell viability upon lactate or metabolic drug treatment was assessed by trypan blue exclusion assay.

[2] = molecular target: T1, Slc16a1 on CD8+ T-cells (Mus musculus, UniProt P53986); experiment: Blockade of Slc16a1: chemokinesis of CD8+ T-cells exposed to lactic-acid; type: cell-based; details: lactic-acid 10 mM; CHC 425 μM, phloretin 25 μM, antibody 2.5 μg/ml, AR-C155858 increasing concentrations
T1 construct: endogenous in cells
T1 sequence (P53986 1-493): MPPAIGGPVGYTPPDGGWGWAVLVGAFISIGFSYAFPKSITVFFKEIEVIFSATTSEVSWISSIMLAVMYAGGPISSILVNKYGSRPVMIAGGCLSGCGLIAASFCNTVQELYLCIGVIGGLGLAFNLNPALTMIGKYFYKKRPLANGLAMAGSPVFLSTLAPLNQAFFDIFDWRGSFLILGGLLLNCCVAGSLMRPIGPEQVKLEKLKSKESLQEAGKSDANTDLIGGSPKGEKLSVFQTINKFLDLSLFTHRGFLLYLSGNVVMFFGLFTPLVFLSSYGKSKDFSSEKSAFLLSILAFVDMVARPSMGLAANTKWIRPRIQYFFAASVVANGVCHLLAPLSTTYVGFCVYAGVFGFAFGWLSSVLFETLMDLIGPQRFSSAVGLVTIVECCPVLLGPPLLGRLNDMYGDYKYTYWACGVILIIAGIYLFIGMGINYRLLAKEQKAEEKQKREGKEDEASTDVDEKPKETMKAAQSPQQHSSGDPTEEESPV
T1 sequence (P18572 140-389 partner limits assumed): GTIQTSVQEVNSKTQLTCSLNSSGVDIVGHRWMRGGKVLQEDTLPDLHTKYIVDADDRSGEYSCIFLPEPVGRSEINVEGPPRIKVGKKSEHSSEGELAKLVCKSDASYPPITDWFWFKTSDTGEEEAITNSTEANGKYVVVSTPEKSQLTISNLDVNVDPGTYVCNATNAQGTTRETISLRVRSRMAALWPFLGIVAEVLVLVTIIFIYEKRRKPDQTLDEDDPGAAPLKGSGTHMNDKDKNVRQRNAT
Text: (§2) T-cell isolation, in-vitro activation and subset enrichment: T-cells were isolated from C57BL/6 murine lymph nodes and activated for 3 to 5 days with plate bound anti-CD3 and anti-CD28 antibodies (BioLegend), and IL-2 (PeproTech). CD4+ and CD8+ subsets were enriched with commercially available CD4+ and CD8+ T-cell isolation kits according to the manufacturer's instructions (Easysep, Invitrogen) either prior or post activation according to experimental settings. Chemokinesis assays: Chemokinesis assays were performed in 5 μm transwell inlays. In some experiments, T-cells were pre-treated overnight with a number of drugs purchased from Calbiochem: Rapamycin (200 nM), 2-DG (1 mM), Metformin (2 mM). […] 3×10^6 lymphocytes were seeded in the upper transwell chamber; chemokines were added to the lower chamber: CXCL10 (300 ng/ml), CCL5 (50 ng/ml), CCL19/21 (200 ng/ml of each chemokine). Migrated T-cells were counted with a hemocytometer 2, 4 and 6 hours after seeding and % of migrated cells was calculated.

[3] = tested on: CD4+ and CD8+ T-cells in the peritoneum; experiment: Zymosan-induced peritonitis: T-cells in peritoneal lavage; type: in vivo, mouse; details: i.p. day 5 after zymosan, phloretin 50 μM, antibody 5 μg/ml, 24 h
Procedure: The inventors used a well-established mouse model of zymosan-induced peritonitis, in which T-cells are recruited to the inflamed site 5 days after zymosan injection (Montero-Melendez et al 2011 Am J Pathol 179: 259-269). C57BL/6 mice were injected in the peritoneal cavity with zymosan (1 mg/mouse) on day 0 or left untreated. On day 5, Phloretin, an anti-Slc5a12 antibody or an isotype control antibody were injected into the peritoneal cavity. 24 hours later, mice were sacrificed and the peritoneal lavage was harvested.
(§3) In vivo zymosan-induced peritonitis: C57BL/6 mice were injected in the peritoneal cavity with zymosan (1 mg per mouse) on day 0 or left untreated. On day 5, Phloretin (50 μM), anti-Slc5a12 antibody (5 μg/ml) or anti-rabbit IgG isotype control antibody (5 μg/ml; Invitrogen) were injected into the peritoneal cavity. 24 hours later, mice were sacrificed and the peritoneal lavage was harvested. T-cells were stained for surface markers (CD4 and CD8; ebiosciences) and analyzed by FACS. This method was used in FIG. 6B and S6A-B. Alternatively C57BL/6 mice were injected in the peritoneal cavity with zymosan (1 mg per mouse) on day 0. […] T-cells were stained for surface markers (CD4 and CD8; ebiosciences) and analyzed by FACS. Cells were first gated on CD4 and subsequently analysed for CFSE positivity. […]

[4] = tested on: CFSE-labelled CD4+ T-cells; experiment: Zymosan-induced peritonitis: adoptive transfer of CFSE-labelled CD4+ T-cells; type: in vivo, mouse; details: co-injected i.p. day 5 after zymosan; 24 h
Procedure: To establish that the decrease in T-cell localization to the peritoneal cavity was at least in part due to their increased release from this site, the inventors performed adoptive transfer experiments whereby CFSE-labelled CD4+ T-cells were co-injected with anti-Slc5a12 antibody, phloretin or an isotype control antibody in the peritoneal cavity of mice which had received zymosan (1 mg/mouse) 5 days before, to create an environment rich of lactate (FIG. 12A). 24 hours after the intra-peritoneal injection of CFSE-labelled CD4+ T-cells, mice were sacrificed, and peritoneal lavage and spleen were harvested.
as §3, with “FACS.” for “FACS. This method was used in FIG. 6B and S6A-B. Alternatively C57BL/6 mice were injected in the peritoneal cavity with zymosan (1 mg per mouse) on day 0.”

[5] = tested on: activated CD4+ T-cells; experiment: CCL5-induced chemokinesis of activated CD4+ T-cells; type: cell-based, mouse; details: 10 mM; CCL5 50 ng/ml
Text: as §2

[6] = tested on: activated CD4+ T-cells; experiment: Intracellular staining of IL-17 in activated CD4+ T-cells; type: cell-based, mouse; details: sodium-lactate 10 mM vs untreated
Procedure: Intracellular protein staining: Differentiated T-cells were incubated in permeabilization/fixation buffer (ebioscience) overnight at 4° C. Samples were washed in permeabilization buffer (ebioscience) and stained for the cytokines IFN-γ and IL-17, using fluorescently conjugated primary antibodies (1:200, ebiosciences) at 4° C. for 30 minutes, and assessed by flow cytometry using a LSR Fortessa (BD Biosciences) and FlowJo version 7.6.5 software.

[7] = tested on: activated CD4+ T-cells; experiment: Glucose uptake and flux with 2-NBDG / 6-NBDG in CD4+ T-cells; type: cell-based, mouse; details: 10 mM; 2-NBDG and 6-NBDG probes
Procedure: as §1

[8] = tested on: activated CD4+ T-cells; experiment: In vitro chemokinesis of activated CD4+ T-cells towards CXCL10 (transwell); type: cell-based, mouse; details: for chemokinesis in vitro towards CXCL10 of pre-treated activated CD4+ T-cells: pre-treated overnight: Rapamycin 200 nM, 2-DG 1 mM, Metformin 2 mM
Text: as §2

[9] = tested on: CD4+ subsets Th0, Th1, Th2 and Th17; experiment: qRT-PCR of cytokines and Rorc in Th0, Th1, Th2, Th17 subsets; type: cell-based, mouse; details: sodium-lactate 10 mM
Procedure: RNA isolation and reverse transcription: RNA was isolated from 10^6 cells or 10 mg RA synovial tissue using commercially available kits (Qiagen) or Trizol (Life) according to the manufacturer's instructions and assessed for quality and quantity using absorption measurements. Reverse transcription to cDNA was performed according to the manufacturer's instruction (Applied Biosystems).
qRT-PCR: Gene expression analysis was done using SYBR Green Supermix (Biorad) in CFX connect light cycler (Biorad), according to the manufacturer's instructions. Gene relative expression was calculated using the rlAct method and normalized to a reference control (RplpO). Primers for qRT-PCR were designed with the assistance of online tools (Primer 3PIus) using at least one exon junction binding site per primer pair where possible. A complete list of primers used is available in Table 2 below. Gene accession numbers are shown according to GenBank.
Th subset differentiation: T-cells were isolated from murine lymph nodes and enriched for CD3+ and subsequently CD4+ subsets. 10^6 cells were plated/well and differentiated towards Th0, Th1, Th2 and Th17 phenotype. Conditions were: Th0 (10 ng/ml IL-2); Th1 (10 ng/ml IL-2; 3.4 ng/ml IL-12; 2 μg/ml Anti-IL-4); Th2 (10 ng/ml IL-2; 10 ng/ml IL-4; 2 μg/ml Anti-IFN-γ); Th17 (10 ng/ml IL-6; 2 μg/ml Anti-IL-4; 2 μg/ml Anti-IFN-γ, 5 ng/ml TGF-β). All antibodies and cytokines were purchased from PeproTech.

[10] = tested on: activated CD4+ T-cells; experiment: Western blot of glycolytic enzymes in activated CD4+ T-cells treated with CXCL10; type: cell-based, mouse; details: CXCL10 1000 ng/ml; sodium-lactate 10 mM
Procedure: Western blot: Protein lysates were prepared from activated T-cells in RIPA buffer. Proteins were separated with SDS-PAGE and transferred to a Nylon membrane (GE Healthcare). Membranes were blocked for 2 h at room temperature in 5% Milk/TBST, incubated overnight at 4° C. with primary antibodies (1:1000) and subsequently with HRP-conjugated secondary antibody (Amersham Bioscience) (1:5000). Antibodies against hexokinase 1, pyruvate kinase M1/2, Aldolase A, Enolase 1 and 6-actin were purchased from Cell Signaling; antibodies against Slc16a1 and Slc5a12 were purchased from Abeam.

[11] = tested on: activated CD8+ T-cells; experiment: In vitro chemokinesis of activated CD8+ T-cells towards CXCL10 (transwell); type: cell-based, mouse; details: 10 mM lactic acid or sodium lactate; CXCL10 300 ng/ml
Text: as §2

[12] = tested on: activated CD4+ T-cells; experiment: In vivo peritoneal recruitment model (CXCL10 i.p.) of pre-treated activated CD4+ T-cells; details: cells pre-treated with Rapamycin 200 nM, 2-DG 1 mM, Metformin 2 mM; CXCL10 120 ng/mouse i.p.
Procedure: In vivo peritoneal recruitment model: All the in vivo experiments were conducted under the UK Home Office regulation (PPL 70/7443). Activated T-cells (5×10^6/mouse) were pre-treated overnight with Rapamycin (200 nM), 2-Deoxyglucose (1 mM) or Metformin (2 mM), then labelled with the fluorescent cell dye DDAO (Invitrogen) and injected intravenously into syngeneic female C57BL/6 mice that had 3 hours prior received an intraperitoneal injection of CXCL10 (120 ng/mouse). 24 hours after injection, mice were sacrificed and spleen and peritoneal lavage were harvested. T-cells were stained for surface markers (CD4 and CD8, ebiosciences) and analysed by FACS. Cells were first gated on CD4 and subsequently analysed for DDAO positivity. This method was used in FIG. 3G and S3E.

[13] = tested on: naive T-cells; experiment: In vitro chemotaxis of naive T-cells towards CCL19/21; type: cell-based, mouse; details: CCL19/21 200 ng/ml each; Rapamycin 200 nM, 2-DG 1 mM, Metformin 2 mM
Text: as §2

## CCOC(=O)[C@@]1(CCCCCCOc2ccc(Cl)cc2)CO1 [etomoxir]
[1]
  effect on glycolysis (ECAR trace) of metabolic drugs: only minor effects

## O=C(CCc1ccc(O)cc1)c1c(O)cc(O)cc1O [phloretin]
[2]
  chemokinesis of CD8+ T-cells exposed to lactic-acid upon blockade of Slc16a1: restored
[3]
  CD8+ T-cells in the peritoneum: significant decrease
[3]; vs isotype control
  CD4+ T-cells in the peritoneum: did not show any effect
[4]
  adoptively transferred T-cells in the peritoneum: not
  adoptively transferred T-cells in the spleen: not

## N#CC(=Cc1ccc(O)cc1)C(=O)O [CHC, α-cyano-4-hydroxycinnamate]
[2]
  chemokinesis of CD8+ T-cells exposed to lactic-acid upon blockade of Slc16a1: restored

## CC(O)C(=O)[O-].[Na+] (stereo not drawn) [sodium-lactate]
[5]
  CCL5-induced migration of CD4+ T-cells: decreased
[6]
  expression of IL-17 protein in CD4+ cells: increased
[7]
  glucose uptake and flux through glycolysis in CD4+ T-cells: selectively blocks
[8]; 10 mM lactic acid or sodium lactate, CXCL10 300 ng/ml
  CXCL10-induced chemokinesis of activated CD4+ T-cells: inhibited
[8]; increasing concentration of sodium lactate, CXCL10 300 ng/ml, read-out: EC50 for decrease of migration of CD4+ T-cells
  EC50: ~10 mM
[9]; all the Th subsets
  IL-17 gene expression in Th subsets: significant up-regulation
  Rorc gene expression in Th subsets: significantly elevated
[9]; reduced: IL-4, IL-5, IL-13 in Th17 subset
  gene expression of Th1 and Th2 signature cytokines: unmodified upon treatment with sodium-lactate or even reduced
[1]; CXCL10 1000 ng/ml, sodium-lactate 10 mM
  glycolysis (ECAR) of CXCL10-stimulated CD4+ T-cells: shut down glycolysis
[1]; sodium-lactate 10 mM, untreated control average 14 mpH/min
  ECAR of CD4+ T-cells, basal conditions: less than 5 mpH/min
[10]
  CXCL10-induced upregulation of glycolytic enzymes: inhibited
[11]
  CXCL10-induced chemokinesis of activated CD8+ T-cells: not vice versa

## O=CC[C@@H](O)[C@H](O)[C@H](O)CO [2-DG, 2-deoxyglucose]
[12]
  chemokinesis in vivo: T-cell recruitment to the peritoneum: decrease
[8]
  chemokinesis in vitro towards CXCL10 of pre-treated activated CD4+ T-cells: decrease
[1]
  effect on glycolysis (ECAR trace) of metabolic drugs: inhibition of glycolysis
[13]
  naive T-lymphocyte motility: decrease

## CN(C)C(=N)N=C(N)N [metformin]
[12]
  chemokinesis in vivo: T-cell recruitment to the peritoneum: increased
[8]
  chemokinesis in vitro towards CXCL10 of pre-treated activated CD4+ T-cells: increased
[1]
  effect on glycolysis (ECAR trace) of metabolic drugs: activation of glycolysis
[13]
  naive T-lymphocyte motility: reduced
